Experimental data taken from patent US20190126075A1, “FOOD AND DRINK PRODUCT CONTAINING POORLY DIGESTIBLE COMPOUND AND COLONIC-HYDROGEN-GAS PRODUCING AGENT” (Kyodo Milk Industry Co., Ltd., priority 2015, published 2019).
Marks after values point to notes of the source that are not given here.

What was measured:
fecal bacteria [1] = assay: H2 production in fecal incubation system, single digestion-resistant components (Example 1); type: cell-based, human; details: final concentration 0.5%; for subjects whose fecal samples showed a sample/control ratio of 10 or higher: 10 subjects; for ratio of the H2 production concentration in sample relative to control: 37° C. for 24 hours
From the text: Twenty-three different types of digestion-resistant components (cellulose, isomaltooligosaccharide, lactose, fructooligosaccharide, galactooligosaccharide, cellobiose, xylooligosaccharide, xylitol, sorbitol, erythritol, maltitol, mannitol, pectin, sodium alginate, glucomannan, lignin, chitin, chitosan, resistant starch, resistant dextrin, reduced resistant dextrin, kale, or young barley leaf) were each diluted with phosphate buffered saline (PBS) to adjust the concentration to 2.5% (w/v). Among these components, those which were not completely dissolved were used in a suspended state. The control used was a PBS solution not containing any of these components.
Fecal samples were collected from 10 human healthy adult subjects (7 male, 3 female, average aged 35.8), and were used within 5 hours after defecation.
(§1) Twenty milliliters of an anaerobic dilution solution (a solution prepared by dissolving KH2PO4, Na2HPO4, L-cysteine hydrochloride, Tween 80, and 0.1% Resazurin in a vial, jet-injecting N2 and CO2 (80%, 20%) into the vial, and autoclaving the vial sealed with a butyl rubber stopper) was added to 5 g of each of the collected samples, and the mixture was stirred by vortexing and then centrifuged (at 1000 g for 1 min.) to remove solids such as undigested food debris. 160 μL of each of the fecal suspension supernatants harboring fecal bacteria was dispensed into an Eppendorf tube, and 40 μL of each of the prepared solutions of digestion-resistant components in PBS was added to each of the Eppendorf tubes (final concentrations of digestion-resistant components: 0.5%). The Eppendorf tubes containing a mixture of fecal suspension and digestion-resistant component were placed into vial bottles (40 mm×75 mm, 50 mL) while the lids of the tubes and bottles were left open, and a mixed gas of N2 and CO2 (79.8%, 20.2%) was jet-injected to render the Eppendorf tubes and the bottles anaerobic. The vials were sealed with butyl rubber stoppers and incubated in an incubator (at 37° C. for 24 hours). The experiments were done in duplicate per sample, with each experiment being repeated three times.
(§2) Half a milliliter of the gas in each of the vial bottles was collected in a 1.0 mL gastight syringe (produced by Hamilton Company) and analyzed by TRIlyzer (Taiyo Nippon Sanso Corporation). In this process, when concentration exceeded the detection limit, 1 mL of the sample was injected into a 50 mL vial bottle, diluted 50-fold, and subjected to concentration measurement. Before gas collection, the gas in the vial bottles was stirred five times using the syringe.
The ratio of the H2 production concentration in each of the samples relative to that in the control was calculated, and those sample/control ratios of 10 or higher are shaded in the table (Table 1).

fecal bacteria [2] = assay: H2 production in fecal incubation system, single components vs mixture of three (Example 2); type: cell-based, human; details: 14 subjects; 0.8% solution of each component in PBS
Method: as §1, §2
Each of maltitol, galactooligosaccharide and glucomannan was dissolved in PBS to give a 0.8% solution. Similarly, in order to prepare a mixed solution of the three components, these components were mixed at a concentration of 0.8% each, and dissolved in PBS. The control used was a PBS solution not containing any of these components.
Fecal samples from 14 human healthy adult subjects (11 male, 3 female, average aged 40.9) were used.
Fecal treatment and incubation, and H2 concentration measurement, were performed by the same procedures as in Example 1.

Compound | subjects whose fecal samples showed a sample/control ratio of 10 or higher (fecal bacteria [1]) | ratio of the H2 production concentration in sample relative to control (fecal bacteria [1]; Subject No. 1 fecal sample) | ratio of the H2 production concentration in sample relative to control (fecal bacteria [1]; Subject No. 2 fecal sample) | ratio of the H2 production concentration in sample relative to control (fecal bacteria [1]; Subject No. 3 fecal sample) | ratio of the H2 production concentration in sample relative to control (fecal bacteria [1]; Subject No. 4 fecal sample) | ratio of the H2 production concentration in sample relative to control (fecal bacteria [1]; Subject No. 5 fecal sample) | ratio of the H2 production concentration in sample relative to control (fecal bacteria [1]; Subject No. 6 fecal sample) | ratio of the H2 production concentration in sample relative to control (fecal bacteria [1]; Subject No. 7 fecal sample) | ratio of the H2 production concentration in sample relative to control (fecal bacteria [1]; Subject No. 8 fecal sample) | ratio of the H2 production concentration in sample relative to control (fecal bacteria [1]; Subject No. 9 fecal sample) | ratio of the H2 production concentration in sample relative to control (fecal bacteria [1]; Subject No. 10 fecal sample) | subjects whose fecal samples showed a sample/control H2 production concentration ratio of 2 or higher (fecal bacteria [2]) | subjects whose fecal samples showed a sample/control H2 production concentration ratio of 3 or higher (fecal bacteria [2]) | subjects whose fecal samples showed a sample/control H2 production concentration ratio of 5 or higher (fecal bacteria [2])
OC[C@@H](O)[C@@H](O)CO [Erythritol, erythritol] | 2 of 10 | 12.7* | 27.6* | 3.8 | 1.5 | 7.1 | 1.8 | 4.0 | 1.8 | 1.0 | 2.1 |  |  | 
OC[C@@H](O)[C@@H](O)[C@H](O)[C@H](O)CO [Mannitol, mannitol] | 5 of 10 | 2.2 | 28.2* | 234.7* | 81.9* | 6.6 | 76.2* | 54.3* | 1.7 | 0.0 | 3.5 |  |  | 
OC[C@@H](O)[C@@H](O[C@H]1O[C@H](CO)[C@@H](O)[C@H](O)[C@H]1O)[C@H](O)[C@@H](O)CO [Maltitol, 4-O-α-D-glucopyranosyl-D-glucitol] | 6 of 10 | 12.5* | 7.2 | 386.6* | 22.1* | 2.6 | 8.4 | 315.5* | 0.8 | 55.6* | 32.3* | 9 of 14 | 5 of 14 | 2 of 14
OC[C@H]1O[C@@H](O[C@H]2[C@H](O)[C@@H](O)C(O)O[C@@H]2CO)[C@H](O)[C@@H](O)[C@H]1O (stereo partly shown) [Lactose, lactose] | 4 of 10 | 4.9 | 9.5 | 36.6* | 28.7* | 22.4* | 22.1* | 0.5 | 0.7 | 0.1 | 7.1 |  |  | 
OC[C@@H](O)[C@H](O)[C@@H](O)CO [Xylitol, xylitol] | 6 of 10 | 18.4* | 11.1* | 40.2* | 72.4* | 8.8 | 3.2 | 1.4 | 1.9 | 12.5* | 60.2* |  |  | 
OC[C@@H](O)[C@@H](O)[C@H](O)[C@@H](O)CO [Sorbitol, sorbitol] | 4 of 10 | 31.6* | 9.6 | 33.0* | 54.8* | 3.4 | 4.2 | 68.6* | 1.7 | 0.1 | 4.5 |  |  | 
4′-galactosyllactose [Galactooligosaccharide] | 5 of 10 | 5.3 | 18.5* | 35.8* | 16.9* | 15.4* | 22.1* | 0.8 | 0.8 | 0.1 | 5.9 | 8 of 14 | 0 of 14 | not in any
O=C[C@H](O)[C@@H](O)[C@H](O[C@@H]1O[C@H](CO)[C@@H](O)[C@H](O)[C@H]1O)[C@H](O)CO [Cellobiose, cellobiose] | 7 of 10 | 25.7* | 37.0* | 67.3* | 76.5* | 8.1 | 52.0* | 3.1 | 7.5 | 46.4* | 18.9* |  |  | 
